# Measured values: ChEMBL document CHEMBL1201861, “Genomics of Drug Sensitity in Cancer screening data, Wellcome Trust Sanger Institute”
# Assays:
# [1] = system: HCT-116; assay: cells; format: functional, cell-based, Homo sapiens; conditions: Homo sapiens, HCT-116
# Description: SANGER: Inhibition of human HCT-116 cell growth in a cell viability assay.
# [2] = system: SUP-T1; assay: cells; format: functional, cell-based, Homo sapiens; conditions: Homo sapiens, SUP-T1;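 also: growth inhibition of human SUP-T1 cells, read out as cell viability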
# Description: SANGER: Inhibition of human SUP-T1 cell growth in a cell viability assay.
# [3] = system: NCI-H2227; assay: cells; format: functional, cell-based, Homo sapiens; conditions: Homo sapiens, NCI-H2227
# Description: SANGER: Inhibition of human NCI-H2227 cell growth in a cell viability assay.
# [4] = system: BHT-101; assay: cells; format: functional, cell-based, Homo sapiens; conditions: Homo sapiens, BHT-101
# Description: SANGER: Inhibition of human BHT-101 cell growth in a cell viability assay.
# [5] = system: NCI-H1963; assay: cells; format: functional, cell-based, Homo sapiens; conditions: Homo sapiens, NCI-H1963;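 also: cell growth inhibition of the human line, determined with a cell viability assay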
# Description: SANGER: Inhibition of human NCI-H1963 cell growth in a cell viability assay.
# [6] = system: HCT-15; assay: cells; format: functional, cell-based, Homo sapiens; conditions: Homo sapiens, HCT-15;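 also: cell viability readout, IC50 reflecting suppression of HCT-15 cell growth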
# Description: SANGER: Inhibition of human HCT-15 cell growth in a cell viability assay.
# [7] = system: RPMI 8402; assay: SANGER: Inhibition of human RPMI-8402 cell growth in a cell viability assay.; format: functional, cell-based; conditions: Homo sapiens, RPMI 8402; read-out: IC50
# [8] = system: HT55; assay: cells; format: functional, cell-based, Homo sapiens; conditions: Homo sapiens, HT55;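 also: cell viability readout measuring growth inhibition of human HT55 cells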
# Description: SANGER: Inhibition of human HT55 cell growth in a cell viability assay.
# [9] = system: PFSK-1; assay: cells; format: functional, cell-based, Homo sapiens; conditions: Homo sapiens, PFSK-1;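 also: cell viability assay measuring how strongly compounds suppress growth of human PFSK-1 cells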
# Description: SANGER: Inhibition of human PFSK-1 cell growth in a cell viability assay.
# [10] = system: Daudi; assay: cells; format: functional, cell-based, Homo sapiens; conditions: Homo sapiens, Daudi
# Description: SANGER: Inhibition of human Daudi cell growth in a cell viability assay.
# [11] = system: P31-FUJ; assay: cells; format: functional, cell-based, Homo sapiens; conditions: Homo sapiens, P31-FUJ;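 also: growth inhibition of P31-FUJ cells, read out with a viability assay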
# Description: SANGER: Inhibition of human P31-FUJ cell growth in a cell viability assay.
# [12] = system: EB2; assay: cells; format: functional, cell-based, Homo sapiens; conditions: Homo sapiens, EB2;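 also: growth inhibition of EB2 cells, read out with a cell viability assay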
# Description: SANGER: Inhibition of human EB2 cell growth in a cell viability assay.
# [13] = system: NCI-H1694; assay: cells; format: functional, cell-based, Homo sapiens; conditions: Homo sapiens, NCI-H1694;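 also: cell viability assay measuring inhibition of growth in human NCI-H1694 cells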
# Description: SANGER: Inhibition of human NCI-H1694 cell growth in a cell viability assay.
# [14] = system: SW1463; assay: cells; format: functional, cell-based, Homo sapiens; conditions: Homo sapiens, SW1463;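 also: growth inhibition of SW1463 cells, determined with a cell viability assay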
# Description: SANGER: Inhibition of human SW1463 cell growth in a cell viability assay.
# [15] = system: HT-1376; assay: cells; format: functional, cell-based, Homo sapiens; conditions: Homo sapiens, HT-1376
# Description: SANGER: Inhibition of human HT-1376 cell growth in a cell viability assay.
# [16] = system: EHEB; assay: cells; format: functional, cell-based, Homo sapiens; conditions: Homo sapiens, EHEB
# Description: SANGER: Inhibition of human EHEB cell growth in a cell viability assay.
# [17] = system: JEG-3; assay: cells; format: functional, cell-based, Homo sapiens; conditions: Homo sapiens, JEG-3;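 also: growth inhibition of human JEG-3 cells, read out with a cell viability assay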
# Description: SANGER: Inhibition of human JEG-3 cell growth in a cell viability assay.
# [18] = system: MG-63; assay: cells; format: functional, cell-based, Homo sapiens; conditions: Homo sapiens, MG-63;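 also: growth inhibition of human MG-63 cells, read out with a cell viability assay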
# Description: SANGER: Inhibition of human MG-63 cell growth in a cell viability assay.
# [19] = system: SF-295; assay: cells; format: functional, cell-based, Homo sapiens; conditions: Homo sapiens, SF-295;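 also: growth inhibition of SF-295 cells, read out with a cell viability assay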
# Description: SANGER: Inhibition of human SF295 cell growth in a cell viability assay.
# [20] = system: TE-441-T; assay: cells; format: functional, cell-based, Homo sapiens; conditions: Homo sapiens, TE-441-T
# Description: SANGER: Inhibition of human TE-441-T cell growth in a cell viability assay.
# [21] = system: IMR-5; assay: cells; format: functional, cell-based, Homo sapiens; conditions: Homo sapiens, IMR-5;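 also: growth inhibition of human IMR-5 cells, read out with a cell viability assay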
# Description: SANGER: Inhibition of human IMR-5 cell growth in a cell viability assay.
# [22] = system: FTC-133; assay: cells; format: functional, cell-based, Homo sapiens; conditions: Homo sapiens, FTC-133
# [23] = system: HOP-92; assay: cells; format: functional, cell-based, Homo sapiens; conditions: Homo sapiens, HOP-92;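 also: cell viability readout, with IC50 reflecting inhibition of HOP-92 cell growth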
# Description: SANGER: Inhibition of human HOP-92 cell growth in a cell viability assay.
# [24] = system: NCI-H2122; assay: cells; format: functional, cell-based, Homo sapiens; conditions: Homo sapiens, NCI-H2122
# Description: SANGER: Inhibition of human NCI-H2122 cell growth in a cell viability assay.
# [25] = system: SW1710; assay: cells; format: functional, cell-based, Homo sapiens; conditions: Homo sapiens, SW1710;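 also: growth inhibition of SW1710 cells, determined with a cell viability assay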
# Description: SANGER: Inhibition of human SW1710 cell growth in a cell viability assay.
# [26] = system: CAL-54; assay: cells; format: functional, cell-based, Homo sapiens; conditions: Homo sapiens, CAL-54;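 also: growth inhibition of CAL-54 cells, read out by a viability measurement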
# Description: SANGER: Inhibition of human CAL-54 cell growth in a cell viability assay.
# [27] = system: SNU-449; assay: cells; format: functional, cell-based, Homo sapiens; conditions: Homo sapiens, SNU-449
# Description: SANGER: Inhibition of human SNU-449 cell growth in a cell viability assay.
# [28] = system: BFTC-905; assay: cells; format: functional, cell-based, Homo sapiens; conditions: Homo sapiens, BFTC-905
# Description: SANGER: Inhibition of human BFTC-905 cell growth in a cell viability assay.
# [29] = system: SK-MES-1; assay: cells; format: functional, cell-based, Homo sapiens; conditions: Homo sapiens, SK-MES-1;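 also: growth inhibition of human SK-MES-1 cells, read out with a cell viability assay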
# Description: SANGER: Inhibition of human SK-MES-1 cell growth in a cell viability assay.
# [30] = system: SAOS-2; assay: cells; format: functional, cell-based, Homo sapiens; conditions: Homo sapiens, SAOS-2;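 also: growth inhibition of human Saos-2 cells determined by a cell viability assay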
# Description: SANGER: Inhibition of human Saos-2 cell growth in a cell viability assay.
# [31] = system: ESS-1; assay: cells; format: functional, cell-based, Homo sapiens; conditions: Homo sapiens, ESS-1;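 also: growth inhibition of human ESS-1 cells, read out by a cell viability assay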
# Description: SANGER: Inhibition of human ESS-1 cell growth in a cell viability assay.
# [32] = system: YKG-1; assay: cells; format: functional, cell-based, Homo sapiens; conditions: Homo sapiens, YKG-1
# Description: SANGER: Inhibition of human YKG-1 cell growth in a cell viability assay.
# [33] = system: RVH-421; assay: cells; format: functional, cell-based, Homo sapiens; conditions: Homo sapiens, RVH-421
# Description: SANGER: Inhibition of human RVH-421 cell growth in a cell viability assay.
# [34] = system: CP50-MEL-B; assay: cells; format: functional, cell-based, Homo sapiens; conditions: Homo sapiens, CP50-MEL-B;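 also: growth inhibition of the human cell line, measured with a cell viability read-out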
# Description: SANGER: Inhibition of human CP50-MEL-B cell growth in a cell viability assay.
# [35] = system: KYSE-150 cell line; assay: cells; format: functional, cell-based, Homo sapiens; conditions: Homo sapiens, KYSE-150;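 also: growth inhibition of human KYSE-150 cells, read out with a cell viability assay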
# Description: SANGER: Inhibition of human KYSE-150 cell growth in a cell viability assay.
# [36] = system: YT; assay: cells; format: functional, cell-based, Homo sapiens; conditions: Homo sapiens, YT
# Description: SANGER: Inhibition of human YT cell growth in a cell viability assay.
# [37] = system: KP-N-YN; assay: cells; format: functional, cell-based, Homo sapiens; conditions: Homo sapiens, KP-N-YN;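 also: growth inhibition of KP-N-YN cells, read out with a cell viability assay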
# Description: SANGER: Inhibition of human KP-N-YN cell growth in a cell viability assay.
# [38] = system: AN3-CA; assay: cells; format: functional, cell-based, Homo sapiens; conditions: Homo sapiens, AN3-CA;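 also: growth inhibition of human AN3-CA cells measured by a cell viability assay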
# Description: SANGER: Inhibition of human AN3-CA cell growth in a cell viability assay.
# [39] = system: NCI-H1993; assay: cells; format: functional, cell-based, Homo sapiens; conditions: Homo sapiens, NCI-H1993;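 also: growth inhibition of the cancer cell line, assessed with a cell viability assay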
# Description: SANGER: Inhibition of human NCI-H1993 cell growth in a cell viability assay.
# [40] = system: HCC1806; assay: cells; format: functional, cell-based, Homo sapiens; conditions: Homo sapiens, HCC1806;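 also: growth inhibition of the cancer cell line, determined with a cell viability assay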
# Description: SANGER: Inhibition of human HCC1806 cell growth in a cell viability assay.
# [41] = system: ECC4; assay: cells; format: functional, cell-based, Homo sapiens; conditions: Homo sapiens, ECC4;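 also: growth inhibition of ECC4 cells, read out with a cell viability assay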
# Description: SANGER: Inhibition of human ECC4 cell growth in a cell viability assay.
# [42] = system: PA-1; assay: cells; format: functional, cell-based, Homo sapiens; conditions: Homo sapiens, PA-1;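 also: IC50 for suppression of PA-1 cell proliferation, determined with a cell viability read-out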
# Description: SANGER: Inhibition of human PA-1 cell growth in a cell viability assay.
# [43] = system: UMC-11; assay: cells; format: functional, cell-based, Homo sapiens; conditions: Homo sapiens, UMC-11;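 also: growth inhibition of UMC-11 cells, read out with a cell viability assay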
# Description: SANGER: Inhibition of human UMC-11 cell growth in a cell viability assay.
# [44] = system: CAL-51; assay: cells; format: functional, cell-based, Homo sapiens; conditions: Homo sapiens, CAL-51;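 also: human CAL-51 cell line, growth inhibition read out via a cell viability assay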
# Description: SANGER: Inhibition of human CAL-51 cell growth in a cell viability assay.
# [45] = system: CPC-N; assay: cells; format: functional, cell-based, Homo sapiens; conditions: Homo sapiens, CPC-N;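 also: growth inhibition of CPC-N cells, with a cell viability assay as the readout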
# Description: SANGER: Inhibition of human CPC-N cell growth in a cell viability assay.
smiles,measurement,setting,value
Oc1ccc2ccccc2c1SSc1c(O)ccc2ccccc12,IC50,[1],> 32 µM
same,IC50,[2],> 32 µM
same,IC50,[3],> 32 µM
same,IC50,[4],> 32 µM
same,IC50,[5],> 32 µM
same,IC50,[6],> 32 µM
same,IC50,[7],5.77 µM
same,IC50,[8],> 32 µM
same,IC50,[9],> 32 µM
same,IC50,[10],5.68 µM
same,IC50,[11],> 32 µM
same,IC50,[12],4.49 µM
same,IC50,[13],> 32 µM
same,IC50,[14],> 32 µM
same,IC50,[15],> 32 µM
same,IC50,[16],8.56 µM
same,IC50,[17],> 32 µM
same,IC50,[18],> 32 µM
same,IC50,[19],> 32 µM
same,IC50,[20],11.5 µM
same,IC50,[21],> 32 µM
same,IC50,[22],> 32 µM
same,IC50,[23],> 32 µM
same,IC50,[24],> 32 µM
same,IC50,[25],1180 nM
same,IC50,[26],> 32 µM
same,IC50,[27],> 32 µM
same,IC50,[28],5150 nM
same,IC50,[29],11.6 µM
same,IC50,[30],> 32 µM
same,IC50,[31],> 32 µM
same,IC50,[32],> 32 µM
same,IC50,[33],> 32 µM
same,IC50,[34],> 32 µM
same,IC50,[35],> 32 µM
same,IC50,[36],1.39 µM
same,IC50,[37],> 32 µM
same,IC50,[38],14.3 µM
same,IC50,[39],> 32 µM
same,IC50,[40],> 32 µM
same,IC50,[41],> 32 µM
same,IC50,[42],27.1 µM
same,IC50,[43],> 32 µM
same,IC50,[44],3.55 µM
same,IC50,[45],> 32 µM
O=C(O)c1ccc(-c2c[nH]c3ncc(-c4ccccc4)cc23)cc1C1CCCC1 [GSK-650394],IC50,[1],> 16 µM
same,IC50,[2],> 16 µM
same,IC50,[3],> 16 µM
same,IC50,[4],> 16 µM
same,IC50,[5],> 16 µM
same,IC50,[6],3.63 µM
same,IC50,[7],> 16 µM
same,IC50,[8],> 16 µM
same,IC50,[9],> 16 µM
same,IC50,[10],> 16 µM
same,IC50,[11],> 16 µM
same,IC50,[12],> 16 µM
same,IC50,[13],> 16 µM
same,IC50,[14],> 16 µM
same,IC50,[15],> 16 µM
same,IC50,[16],> 16 µM
same,IC50,[17],> 16 µM
same,IC50,[18],> 16 µM
same,IC50,[19],7.6 µM
same,IC50,[20],> 16 µM
same,IC50,[21],9.19 µM
same,IC50,[22],> 16 µM
same,IC50,[23],> 16 µM
same,IC50,[24],3.33 µM
same,IC50,[25],2700 nM
same,IC50,[26],> 16 µM
same,IC50,[27],> 16 µM
same,IC50,[28],785 nM
same,IC50,[29],16 µM
same,IC50,[30],> 16 µM
same,IC50,[31],> 16 µM
same,IC50,[32],7.39 µM
same,IC50,[33],> 16 µM
same,IC50,[34],> 16 µM
same,IC50,[35],10.4 µM
same,IC50,[36],9.9 µM
same,IC50,[37],15.8 µM
same,IC50,[38],7.66 µM
same,IC50,[39],> 16 µM
same,IC50,[40],> 16 µM
same,IC50,[41],> 16 µM
same,IC50,[42],3.33 µM
same,IC50,[43],> 16 µM
same,IC50,[44],5.36 µM
same,IC50,[45],10.3 µM
